ChEMBL document CHEMBL1131228, “Molecular modeling of phenothiazines and related drugs as multidrug resistance modifiers: a comparative molecular field analysis study” (1998)

These molecules were tested on MCF7-DOX (assay: Anti MDR activity was expressed as MDR ratio or MDR fold reversal in doxorubicin resistant human breast carcinoma tumor cell line MCF-7/DOX).
Type: functional

Molecule | MDR ratio
CN(C)CCC=C1c2ccccc2Sc2ccc(Cl)cc21 | 7
CN(C)CCCN1c2ccccc2Sc2cccc(Cl)c21 | 1.3
CN(C)CCCN1c2ccc(O)cc2Sc2ccc(Cl)cc21 [7-HYDROXYCHLORPROMAZINE] | 1
CN(C)CCC=C1c2ccccc2Sc2ccc(C(F)(F)F)cc21 | 2.8
OCCN1CCN(CCCN2c3ccccc3Sc3ccc(Cl)cc32)CC1 [PERPHENAZINE] | 2
CN(C)CC=C1c2ccccc2Sc2ccc(Cl)cc21 | 1.3
CN(C)CCCN1c2ccccc2Sc2c(Cl)cccc21 | 1.4
CN(C)CCCN1c2ccccc2Sc2ccccc21 [PROMAZINE] | 1.2
CN(C)CCCN1c2cc(Cl)ccc2Sc2cc(O)c(O)cc21 | 0.8
NCCCN1c2ccccc2Sc2ccc(Cl)cc21 [NOR2-CHLORPROMAZINE] | 1.1
CCN(CC)CCCN1c2ccccc2Sc2ccc(Cl)cc21 [CHLORPROETHAZINE] | 2.2
CSc1ccc2c(c1)N(CCCN(C)C)c1ccccc1S2 | 1.5
CC(CN1c2ccccc2Sc2ccccc21)N(C)C (configuration not stated) [PROMETHAZINE] | 1.9
FLUPENTIXOL | 4.8
Clc1ccc2c(c1)/C(=C\CCN1CCCCC1)c1ccccc1S2 | 6.7
CN(C)CCN1c2ccccc2Sc2ccc(Cl)cc21 [CHOLRPHENETHAZINE] | 1.5
CN(C)CC/C=C1/c2ccccc2Sc2ccc(C(F)(F)F)cc21 | 1.8
CCN(CC)CC/C=C1/c2ccccc2Sc2ccc(Cl)cc21 | 4
CNCCCN1c2ccccc2Sc2ccc(Cl)cc21 [NOR1-CHLORPROMAZINE] | 1.2

Molecule | MDR ratio
CN(C)CCCN1c2ccccc2Sc2cc(Cl)ccc21 | 1.3
OCCN1CCN(CCCN2c3ccccc3Sc3ccc(C(F)(F)F)cc32)CC1 [FLUPHENAZINE] | 2.7
OCCN1CCN(C/C=C2/c3ccccc3Sc3ccc(Cl)cc32)CC1 | 1.6
OCCN1CCN(CC/C=C2/c3ccccc3Sc3ccc(C(F)(F)F)cc32)CC1 [Z-FLUPENTIXOL] | 15.2
Clc1ccc2c(c1)C(=CCCN1CCCCC1)c1ccccc1S2 | 15
CCN(CC)CCC=C1c2ccccc2Sc2ccc(Cl)cc21 | 7.2
CN(C)CCCN1c2ccccc2Sc2ccc(Cl)cc21 [CHLORPROMAZINE] | 1.6
CCN(CC)CCCC(C)Nc1c2ccc(Cl)cc2nc2ccc(OC)cc12 (configuration not stated) [QUINACRINE] | 1.3
CN(C)C/C=C1/c2ccccc2Sc2ccc(Cl)cc21 | 1.1
OCCN1CCN(CCCC2c3ccccc3Sc3ccc(Cl)cc32)CC1 (configuration not stated) | 9.7
CN(C)CCCN1c2ccccc2[S+]([O-])c2ccc(Cl)cc21 (configuration not stated) [CHLOROPROMAZINE SULFOXIDE] | 2.2
CN1CCN(CCCN2c3ccccc3Sc3ccc(C(F)(F)F)cc32)CC1 [TRIFLUOPERAZINE] | 3.4
CN(C)CC/C=C1/c2ccccc2Sc2ccc(Cl)cc21 [CHLORPROTHIXENE] | 2
OCCN1CCN(CC/C=C2/c3ccccc3Sc3ccc(Cl)cc32)CC1 (stereo in doubt; 34) [ZUCLOPENTHIXOL] | 2.6
CN(C)CCCN1c2cc(O)ccc2Sc2cc(O)c(Cl)cc21 | 0.9
CN(C)CCCN1c2ccccc2CCc2ccccc21 [IMIPRAMINE] | 2.5
OCCN1CCN(CC/C=C2/c3ccccc3Sc3ccc(Cl)cc32)CC1 (stereo in doubt; 35) [ZUCLOPENTHIXOL] | 15
CN(C)CCCCN1c2ccccc2Sc2ccc(Cl)cc21 | 2
